From US20140377870A1 (priority 2010, published 2014)

Key:
VACVΔE3L::GyrB-PKR = format: cell-based, vaccinia virus
VACVΔE3L = format: cell-based, vaccinia virus
VACVΔE3L::GyrB-PKRK296H = format: cell-based, vaccinia virus
VACVΔJ2R::GyrB-PKR = format: cell-based, vaccinia virus
[1] = tested on: cells not expressing the HSV-TK gene; conditions: cited from earlier work
ES cells = conditions: cited from earlier work

Compound	coumermycin concentration at which sensitivity of the virus was observed (VACVΔE3L::GyrB-PKR)	sensitivity of virus to coumermycin (VACVΔE3L)	sensitivity of virus to coumermycin (VACVΔE3L::GyrB-PKRK296H)	sensitivity to coumermycin compared to untreated cells (VACVΔJ2R::GyrB-PKR)	nonspecific toxicity [1]	totipotency of ES cells (ES cells)
Coumermycin A1	greater than 5 ng/ml	resistant to all doses	resistant to all doses	at least 100,000 fold		
Nc1nc(O)c2ncn(COC(CO)CO)c2n1 [GCV, ganciclovir]					nonspecific toxicity	reduce the totipotency
